Consider 28 compounds from patent US7488738B2, “Aminophenoxyacetic acid derivatives and pharmaceutical composition containing thereof” (Asubio Pharma Co., Ltd., priority 1998, dated 2009).

The first experiment relates to cells of cerebral cortex. The experiment in a line: Cytoprotective effect against glutamate induced cell death (MTT). The class given is cell-based, rats of Wister strain. The settings on record: compound 1 μM added 24 h before 1 mM glutamate, fetal rat cerebral cortex cells, control group = 100%. As for the experimental part:
Biological Test 1: Cytoprotective Effect Against Glutamate Induced Cell Death
In accordance with the method of M. P. Mattoson [M. P. Mattoson, Brain Res. Rev., 13, 179 (1988)], brain of 18-days fetus rats of Wister strain were taken out. Then, cells of cerebral cortex (4×10^5 cells/ml) were seeded on poly-L-lysine coated 96 wells flat bottom plate (Sumitomo Bakelite Co., Ltd.) in concentration of 4×10^4 cells/each well. After 48 hours of incubation, 1 μM of test compounds were added, then after further 24 hours, 1 mM of glutamate were further added for inducing the cell injury. 12 hours after adding glutamate, MTT [3-(4,5-dimethylthiazol)-2,5-diphenyltetrazolium bromide] was added and incubated for 6 hours.
After incubation, 200 μl of dimethy sulfoxide was added to each wells, and the amounts of reduced MTT were calorimetrically analyzed by Micro ELISA Reader using 570 nm of main-wavelength and 650 nm of sub-wavelength.
The effect of the test compounds was determined as the survival rate of living cells (%) according to the following equation: Survival rate of living cells (%)=[(test compound group−glutamate treated group)÷(control group−glutamate treated group)]×100
That is, the survival rate of living cells after incubation of the control group was converted to 100%, and the survival data of living cells of the tested compounds was shown in Table II.
On to `Cc1cc(OC(C)(C)C(=O)N(C)C2CCN(CC(=O)Nc3cccc(Cl)c3C)CC2)c(C)c(C)c1N` [Compound 48, 2-(4-Amino-2,3,5-trimethylphenoxy)-2-methyl-N-[1-(2-(3-chloro-2-methyl)anilino-2-oxyethyl)-4-piperidinyl]-N-methylpropamide], for which the “Survival Rate (%) (Compound: 1 μM)” value is 207%.

For `Cc1cc(OCC(=O)NC2CCN(CCc3ccccc3)CC2)c(C)c(C)c1N` [Compound 97, 2-(4-Amino-2,3,5-trimethylphenoxy)-N-(1-(2-phenethyl)-4-piperidinyl)acetamide], the “Survival Rate (%) (Compound: 1 μM)” value came out at 119%.

Turning to `CCN(C(=O)C(C)Oc1cc(C)c(N)c(C)c1C)C1CCN(CC2(c3ccccc3)CC2)CC1` (stereo not shown) [Compound 87, 2-(4-Amino-2,3,5-trimethylphenoxy)-N-ethyl-N-[1-(1-phenyl-1-cyclopropane)methyl-4-piperidinyl]propamide], the “Survival Rate (%) (Compound: 1 μM)” value came out at 81%.

For the compound `CCN(C(=O)COc1c(C)c(C)c(N)c(C)c1Cl)C1CCN(CC(=O)Nc2cc(C)c(O)cc2C)CC1` [Compound 93, 2-(4-Amino-2-chloro-3,5,6-trimethylphenoxy)-N-[1-(2-(2,5-dimethyl-4-hydroxy)anilino-2-oxyethyl)-4-piperidinyl]-N-ethylacetamide], the “Survival Rate (%) (Compound: 1 μM)” value is on record as 171%.

For the compound `CCN(C(=O)CNc1c(C)c(C)c(N)c(C)c1C)C1CCN(CC2(c3ccccc3)CC2)CC1` [Compound 88, 2-(4-Amino-2,3,5,6-tetramethylanilino)-N-ethyl-N-[1-(1-phenyl-1-cyclopropane)methyl-4-piperidinyl]acetamide], the “Survival Rate (%) (Compound: 1 μM)” value is listed as 81%.

`Cc1cc(OC(C)(C)C(=O)N(C)C2CCN(CC(=O)Nc3cc(Cl)c(N)cc3Cl)CC2)c(C)c(C)c1N` [Compound 79, 2-(4-Amino-2,3,5-trimethylphenoxy)-2-methyl-N-[1-(2-(4-amino-2,5-dichloro)anilino-2-oxyethyl)-4-piperidinyl]-N-methylpropamide]: the “Survival Rate (%) (Compound: 1 μM)” value stood at 79%.

For `Cc1cc(OC(C)C(=O)NC2CCN(CC(=O)Nc3ccccc3)CC2)c(C)c(C)c1N` (stereo not shown) [Compound 83, 2-(4-Amino-2,3,5-trimethylphenoxy)-N-[1-(2-anilino-2-oxyethyl)-4-piperidinyl]propamide], the “Survival Rate (%) (Compound: 1 μM)” value stood at 65%.

Turning to `Cc1cc(OC(C)C(=O)NC2CCN(C[C@@H]3C[C@H]3c3ccccc3)CC2)c(C)c(C)c1N` (relative stereo) [Compound 106, 2-(4-Amino-2,3,5-trimethylphenoxy)-N-[1-(trans-2-phenyl-1-cyclopropylmethyl)-4-piperidinyl]propamide], the “Survival Rate (%) (Compound: 1 μM)” value turned out to be 151%.

`CCN(C(=O)C(C)Oc1cc(C)c(N)c(C)c1C)C1CCN(C/C=C/c2ccccc2)CC1` (stereo not shown) [Compound 77, 2-(4-Amino-2,3,5-trimethylphenoxy)-N-ethyl-N-[1-(3-phenyl-2-(E)-propenyl)-4-piperidinyl]propamide]: the “Survival Rate (%) (Compound: 1 μM)” value was found to be 111%.

`CCN(C(=O)COc1cc(C)c(N)c(C)c1C)C1CCN(CC(=O)Nc2ccccc2)CC1` [Compound 71, 2-(4-Amino-2,3,5-trimethylphenoxy)-N-[1-(2-anilino-2-oxyethyl)-4-piperidinyl]-N-ethylacetamide]: the “Survival Rate (%) (Compound: 1 μM)” value is 89%.

For `Cc1cc(OC(C)(C)C(=O)N(C)C2CCN(CC(=O)NC3(c4ccccc4)CC3)CC2)c(C)c(C)c1N` [Compound 69, 2-(4-Amino-2,3,5-trimethylphenoxy)-2-methyl-N-methyl-N-[1-(2-(1-phenylcyclopropyl)amino-2-oxyethyl)-4-piperidinyl]propamide], the “Survival Rate (%) (Compound: 1 μM)” value stood at 68%.

As for `Cc1cc(OCC(=O)N(C)C2CCN(CC(=O)Nc3ccccc3C(C)(C)C)CC2)c(C)c(C)c1N` [Compound 46, 2-(4-Amino-2,3,5-trimethylphenoxy)-N-[1-(2-(2-tert-butyl)anilino-2-oxyethyl)-4-piperidinyl]-N-methylacetamide], the “Survival Rate (%) (Compound: 1 μM)” value was 101%.

Regarding `Cc1c(C)c(N(C)CC(=O)N(C)C2CCN(CCc3ccccc3)CC2)c(C)c(C)c1N` [Compound 120, 2-(4-Amino-2,3,5,6-tetramethyl-N-methylanilino)-N-methyl-N-[1-(2-phenethyl)-4-piperidinyl]acetamide], the “Survival Rate (%) (Compound: 1 μM)” value is 88%.

Regarding `Cc1cc(OC(C)(C)C(=O)N(C)C2CCN(CC3(c4ccccc4)CC3)CC2)c(C)c(C)c1N` [Compound 68, 2-(4-Amino-2,3,5-trimethylphenoxy)-2-methyl-N-methyl-N-[1-(1-phenyl-1-cyclopropane)methyl-4-piperidinyl]propamide], the “Survival Rate (%) (Compound: 1 μM)” value is reported as 75%.

Consider `Cc1cc(OCC(=O)NC2CCN(CC(=O)Nc3ccccc3)CC2)c(C)c(C)c1N` [Compound 85, 2-(4-Amino-2,3,5-trimethylphenoxy)-N-[1-(2-anilino-2-oxyethyl)-4-piperidinyl]acetamide], for which the “Survival Rate (%) (Compound: 1 μM)” value is recorded as 98%.

Turning to `Cc1cc(N)c(NCC(=O)N(C)C2CCN(C[C@@H]3C[C@H]3c3ccccc3)CC2)cc1C` (relative stereo) [Compound 137, 2-(2-Amino-4-5-dimethylanilino)-N-methyl-N-[1-(trans-2-phenyl-1-cyclopropylmethyl)-4-piperidinyl]acetamide], the “Survival Rate (%) (Compound: 1 μM)” value is 71%.

For `Cc1cc(OC(C)C(=O)NC2CCN(CC(=O)NC3(c4ccccc4)CC3)CC2)c(C)c(C)c1N` (stereo not shown) [Compound 102, 2-(4-Amino-2,3,5-trimethylphenoxy)-N-[1-(2-(1-phenylcyclopropyl)amino-2-oxyethyl)-4-piperidinyl]propamide], the “Survival Rate (%) (Compound: 1 μM)” value amounted to 89%.

Turning to `Cc1cc(OCC(=O)N(C)C2CCN(CC(=O)Nc3cc(Cl)c(N)cc3Cl)CC2)c(C)c(C)c1N` [Compound 89, 2-(4-Amino-2,3,5-trimethylphenoxy)-N-[1-(2-(4-amino-2,5-dichloro)anilino-2-oxyethyl)-4-piperidinyl]-N-methylacetamide], the “Survival Rate (%) (Compound: 1 μM)” value was 126%.

For `CN(C(=O)CNc1cc(Cl)c(N)cc1Cl)C1CCN(CCc2ccccc2)CC1` [Compound 138, 2-(4-Amino-2,5-dichloroanilino)-N-methyl-N-[1-(2-phenethyl)-4-piperidinyl]acetamide], the “Survival Rate (%) (Compound: 1 μM)” value came to 42%.

Take `Cc1cc(OC(C)C(=O)N(C)C2CCN(CC(=O)Nc3ccccc3C(C)(C)C)CC2)c(C)c(C)c1N` (stereo not shown) [Compound 60, 2-(4-Amino-2,3,5-trimethylphenoxy)-N-[1-(2-(2-tert-butylanilino)-2-oxyethyl)-4-piperidinyl]-N-methylpropamide]: the “Survival Rate (%) (Compound: 1 μM)” value amounted to 60%.

As to `Cc1cc(OC(C)C(=O)N(C)C2CCN(CC(O)COc3ccccc3)CC2)c(C)c(C)c1N` (stereo not shown) [Compound 103, 2-(4-Amino-2,3,5-trimethylphenoxy)-N-methyl-N-[1-(2-hydroxy-3-phenoxy)propyl-4-piperidinyl]propamide], the “Survival Rate (%) (Compound: 1 μM)” value worked out at 180%.

Still in this experiment, the particulars now being: compound 1 μM added 24 h before 1 mM glutamate, fetal rat cerebral cortex cells, control group = 100%, read-out: Survival Rate (%) (Compound: 1 μM).
For `CCN(C(=O)CNc1c(C)c(C)c(N)c(C)c1C)C1CCN(C[C@@H]2C[C@H]2c2ccccc2)CC1` (relative stereo) [Compound 94, 2-(4-Amino-2,3,5,6-tetramethylanilino)-N-ethyl-N-[1-(trans-2-phenyl-1-cyclopropylmethyl)-4-piperidinyl]acetamide], the viability at 1 µM was determined as 198%.

For the compound `Cc1cc(OCC(=O)NC2CCN(C[C@@H]3C[C@H]3c3ccccc3)CC2)c(C)c(C)c1N` (relative stereo) [Compound 95, 2-(4-Amino-2,3,5-trimethylphenoxy)-N-[1-(trans-2-phenyl-1-cyclopropylmethyl)-4-piperidinyl]acetamide], the viability at 1 µM worked out at 61%.

`Cc1c(C)c(NCC(=O)N(C)C2CCN(Cc3ccccc3)CC2)c(C)c(C)c1N` [Compound 110, 2-(4-Amino-2,3,5,6-tetramethylanilino)-N-(1-benzyl-4-piperidinyl]-N-methylacetamide]: the viability at 1 µM turned out to be 61%.

Regarding `Cc1c(C)c(NCC(=O)N(C)C2CCN(Cc3ccncc3)CC2)c(C)c(C)c1N` [Compound 114, 2-(4-Amino-2,3,5,6-tetramethylanilino)-N-methyl-N-[1-(4-pyridylmethyl)-4-piperidinyl]acetamide], the viability at 1 µM came out at 50%.

As for `Cc1cc(C)c(NCC(=O)N(C)C2CCN(C/C=C/c3ccccc3)CC2)c(C)c1N` [Compound 125, 2-(3-Amino-2,4,6-trimethylanilino)-N-methyl-N-[1-(3-phenyl-2-(E)-propenyl)-4-piperidinyl]acetamide], the viability at 1 µM was found to be 52%.

Take `CCN(C(=O)COc1cc(C)c(N)c(C)c1C)C1CCN(C/C=C/c2ccccc2)CC1` [Compound 74, 2-(4-Amino-2,3,5-trimethylphenoxy)-N-ethyl-N-[1-(3-phenyl-2-(E)-propenyl)-4-piperidinyl]acetamide]: the viability at 1 µM came to 87%.

Consider `Cc1cc(C)c(NCC(=O)N(C)C2CCN(S(=O)(=O)c3ccccc3)CC2)c(C)c1N` [Compound 130, 2-(3-Amino-2,4,6-trimethylanilino)-N-methyl-N-[1-(phenylsulfonyl)-4-piperidinyl]acetamide], for which the viability at 1 µM came out at 60%.
